From patent US10538532B2, “Hepatitis B antiviral agents” (ENANTA PHARMACEUTICALS, INC., priority 2016, dated 2020)
Read-outs that look alike come from different tables or passages of the source.

Legend:
HBV = experiment: HepAD38 antiviral assay: reduction of viral product accumulation (virion DNA by qPCR, HBsAg or HBeAg by ELISA); type: cell-based, hepatitis B virus; details: HepAD38 cells, five days after compound addition, concentration reducing viral product accumulation by 50% relative to no drug controls, read-out: HepAD38 EC50
Method in brief: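 HepAD38 cells were washed free of tetracycline, plated at 35,000 cells/well and given compounds diluted 1:200 from DMSO. After 5 days, or 8 days with media and compound refreshed on d2 and d5, virion DNA was measured by qPCR and HBsAg or HBeAg by ELISA. EC50 is the concentration giving 50% reduction of viral product versus no-drug controls.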

[1] = Compound toxicity, ATPLite total ATP levels; type: cell-based; details: human, HepAD38 cells, three days after compound addition, concentration reducing total ATP levels by 50% relative to no drug controls
Description: Methods: HepAD38 cells are maintained as previously reported (Ladner et al, Antimicrob. Agents Chemother. 1997, […], 1715). Briefly, cells are passaged upon attaining confluency in DMEM/F12 media in the presence of 10% FBS, Penn/Strep, 250 μg/mL G418, and 1 ug/ml tetracycline. Novel compounds are screened by first washing cells three times with PBS to remove tetracycline, and plating in 96 well plates at 35,000 cells/well. Compounds dissolved in DMSO are then diluted 1:200 into wells containing cells. Five days after compound addition, material is harvested for analysis. For an extended 8 day analysis, cells are plated and treated as described above, but media and compound are refreshed on d2 and d5 post initial treatment.
Compound toxicity is evaluated by seeding cells at 15,000 cells/well and treating with compound as described above.

[2] = Hepatitis B virus, HePAD38, 120 h

Row | Compound | EC50 (HBV; [2]) | CC50 at 3 days ([1]; class symbols) | CC50 at 3 days ([1]; numeric bounds) | EC50 (HBV)
1 | NC[C@@]1(O)CC2CC[C@@H](C1)[C@H]2S(=O)(=O)c1cc(C(=O)Nc2cc(F)c(F)c(F)c2)ccc1Cl [Example 277] | 100 to 400 nM | < 10000 nM |  | 
2 | CCS(=O)(=O)NC[C@@]1(O)CC2CC[C@@H](C1)[C@H]2S(=O)(=O)c1cc(C(=O)Nc2cc(F)c(F)c(F)c2)ccc1Cl [Example 278] | 100 to 400 nM | > 25000 nM |  | 
3 | CC1=NO[C@@]2(C1)CC1CC[C@@H](C2)[C@H]1S(=O)(=O)c1cc(C(=O)Nc2cc(F)c(F)c(F)c2)ccc1Cl [Example 188] | < 100 nM |  | > 12500 nM | 
4 | C[C@]1(O)C2CCC1C[C@@H](S(=O)(=O)c1cc(C(=O)Nc3cc(F)c(F)c(F)c3)ccc1Cl)C2 [Example 246] | 100 to 400 nM | 10000 to 25000 nM |  | 
5 | O=C(Nc1cc(F)c(F)c(F)c1)c1ccc(Cl)c(S(=O)(=O)[C@H]2C3CC[C@H]2C[C@](O)(c2cc(-c4ccccc4)on2)C3)c1 [Example 220] | < 100 nM | < 10000 nM |  | 
6 | CC(C)(C)OC(=O)NC1CC2CC[C@@H](C1)[C@H]2S(=O)(=O)c1cc(C(=O)Nc2cc(F)c(F)c(F)c2)ccc1Cl (stereo partly shown) [Example 297] | < 100 nM |  | > 6250 nM | 
7 | CC[C@]1(O)C2CCC1C[C@@H](S(=O)(=O)c1cc(C(=O)Nc3cc(F)c(F)c(F)c3)ccc1Cl)C2 [Example 252] | < 100 nM |  | > 6250 nM | 
8 | [N-]=[N+]=NC[C@]1(O)CC2CC[C@@H](C1)[C@H]2S(=O)(=O)c1cc(C(=O)Nc2cc(F)c(F)c(F)c2)ccc1Cl [Example 286] | < 100 nM | 10000 to 25000 nM |  | 
9 | O=C(Nc1cc(F)c(F)c(F)c1)c1ccc(Cl)c(S(=O)(=O)[C@]2(F)CC[C@@H](O)CC2)c1 [Example 9] | 100 to 400 nM | 10000 to 25000 nM |  | 
10 | O=C(Nc1cc(F)c(F)c(F)c1)c1ccc(Cl)c(S(=O)(=O)[C@H]2C3CC[C@H]2C[C@](O)(COCCO)C3)c1 [Example 319] | < 100 nM | > 25000 nM |  | 
11 | N#C[C@H]1CC2CC[C@@H](C1)[C@H]2S(=O)(=O)c1cc(C(=O)Nc2cc(F)c(F)c(F)c2)ccc1Cl [Example 284] | < 100 nM |  | > 3120 nM | 
12 | O=C(Nc1cc(F)c(F)c(F)c1)c1ccc(Cl)c(S(=O)(=O)[C@H]2CC3CCC(C2)[C@]3(O)c2ccccn2)c1 [Example 308] | < 100 nM | > 25000 nM |  | 
13 | O=C(Nc1cc(F)c(F)c(F)c1)c1ccc(Cl)c(S(=O)(=O)Cc2ccncc2)c1 [Example 46] | 100 to 400 nM | > 25000 nM |  | 
14 | O=C1NC[C@]2(O1)C1CCC2C[C@@H](S(=O)(=O)c2cc(C(=O)Nc3cc(F)c(F)c(F)c3)ccc2Cl)C1 [Example 260] | < 100 nM | > 25000 nM |  | 
15 | O=C(Nc1cc(F)c(F)c(F)c1)c1ccc(Cl)c(S(=O)(=O)[C@H]2CC3CCC(C2)[C@]3(O)CNS(=O)(=O)c2cccnc2)c1 [Example 295] | < 100 nM |  | > 12500 nM | 
16 | O=C(Nc1cc(F)c(F)c(F)c1)c1ccc(Cl)c(S(=O)(=O)C2CC[C@H](O)[C@@H](O)CC2)c1 [Example 84] | < 100 nM | > 25000 nM |  | 
17 | O=C(Nc1cc(F)c(F)c(F)c1)c1ccc(Cl)c(S(=O)(=O)Cc2ccccn2)c1 [Example 48] | > 400 nM | > 25000 nM |  | 
18 | CS(=O)(=O)N[C@@H]1C2CC[C@H]1C[C@H](S(=O)(=O)c1cc(C(=O)Nc3cc(F)c(F)c(F)c3)ccc1Cl)C2 [Example 310] | < 100 nM | > 25000 nM |  | 
19 | O=C(Nc1cc(F)c(F)c(F)c1)c1ccc(Cl)c(S(=O)(=O)[C@H]2CC3CCC(C2)[C@]3(O)c2ncc[nH]2)c1 [Example 302] | < 100 nM | 10000 to 25000 nM |  | 
20 | O=C(Nc1cc(F)c(F)c(F)c1)c1ccc(Cl)c(S(=O)(=O)[C@H]2CC3CCC(C2)[C@]3(O)c2nccs2)c1 [Example 322] | < 100 nM | 10000 to 25000 nM |  | 
21 | NC1CC2CC[C@@H](C1)[C@H]2S(=O)(=O)c1cc(C(=O)Nc2cc(F)c(F)c(F)c2)ccc1Cl (stereo partly shown) [Example 298] | 100 to 400 nM | 10000 to 25000 nM |  | 
22 | C[C@]1(O)C2CCC1C[C@H](S(=O)(=O)c1cc(C(=O)Nc3cc(F)c(F)c(F)c3)ccc1Cl)C2 [Example 253] |  | > 25000 nM |  | < 100 nM
23 | O=C(Nc1cc(F)c(F)c(F)c1)c1ccc(Cl)c(S(=O)(=O)[C@H]2C3CC[C@H]2C[C@](O)(c2ncc[nH]2)C3)c1 [Example 281] | < 100 nM | > 25000 nM |  | 
24 | O=C(Nc1cc(F)c(F)c(F)c1)c1ccc(Cl)c(S(=O)(=O)[C@H]2C3CC[C@H]2C[C@](O)(Cn2cccn2)C3)c1 [Example 313] | < 100 nM |  | > 6250 nM | 

Row | Compound | EC50 (HBV; [2]) | CC50 at 3 days ([1]; class symbols) | CC50 at 3 days ([1]; numeric bounds) | EC50 (HBV)
25 | COC(=O)N[C@@H](C(=O)NC1CC2CC[C@@H](C1)[C@H]2S(=O)(=O)c1cc(C(=O)Nc2cc(F)c(F)c(F)c2)ccc1Cl)C(C)C (stereo partly shown) [Example 300] | < 100 nM |  | > 6250 nM | 
26 | O=C(Nc1cc(F)c(F)c(F)c1)c1ccc(Cl)c(S(=O)(=O)[C@H]2CC3CCC(C2)[C@]3(O)Cn2cccn2)c1 [Example 256] | < 100 nM |  | > 12500 nM | 
27 | COC(=O)NC1CC2CC[C@@H](C1)[C@H]2S(=O)(=O)c1cc(C(=O)Nc2cc(F)c(F)c(F)c2)ccc1Cl (stereo partly shown) [Example 321] | < 100 nM | > 25000 nM |  | 
28 | COC(=O)N[C@H](C(=O)NC[C@@]1(O)CC2CC[C@@H](C1)[C@H]2S(=O)(=O)c1cc(C(=O)Nc2cc(F)c(F)c(F)c2)ccc1Cl)C(C)C [Example 288] | 100 to 400 nM | 10000 to 25000 nM |  | 
29 | COC(=O)N[C@H]1C2CCC1C[C@@H](S(=O)(=O)c1cc(C(=O)Nc3cc(F)c(F)c(F)c3)ccc1Cl)C2 [Example 309] | < 100 nM | > 25000 nM |  | 
30 | C=C[C@]1(O)CC2CC[C@@H](C1)[C@H]2S(=O)(=O)c1cc(C(=O)Nc2cc(F)c(F)c(F)c2)ccc1Cl [Example 267] | < 100 nM | > 25000 nM |  | 
31 | O=C(Nc1cc(F)c(F)c(F)c1)c1ccc(Cl)c(S(=O)(=O)[C@H]2C3CC[C@H]2C[C@H](Cn2ccnc2)C3)c1 [Example 312] | < 100 nM | 10000 to 25000 nM |  | 
32 | O=C(Nc1cc(F)c(F)c(F)c1)c1ccc(Cl)c(S(=O)(=O)CCCO)c1 [Example 7] | > 400 nM | > 25000 nM |  | 
33 | N#CC[C@]1(O)CC2CC[C@@H](C1)[C@H]2S(=O)(=O)c1cc(C(=O)Nc2cc(F)c(F)c(F)c2)ccc1Cl [Example 291] | < 100 nM | 10000 to 25000 nM |  | 
34 | O=C(Nc1cc(F)c(F)c(F)c1)c1ccc(Cl)c(S(=O)(=O)[C@H]2C3CC[C@H]2C[C@](O)(COCc2ccccn2)C3)c1 [Example 317] | < 100 nM | < 10000 nM |  | 
35 | CN(C)C[C@]1(O)CC2CC[C@@H](C1)[C@H]2S(=O)(=O)c1cc(C(=O)Nc2cc(F)c(F)c(F)c2)ccc1Cl [Example 154] | < 100 nM | < 10000 nM |  | 
36 | N#CC[C@]1(O)C2CCC1C[C@@H](S(=O)(=O)c1cc(C(=O)Nc3cc(F)c(F)c(F)c3)ccc1Cl)C2 [Example 275] | < 100 nM | > 25000 nM |  | 
37 | COC(=O)N1C[C@]2(CC3CC[C@@H](C2)[C@H]3S(=O)(=O)c2cc(C(=O)Nc3cc(F)c(F)c(F)c3)ccc2Cl)OC1=O [Example 289] | 100 to 400 nM |  | > 12500 nM | 
38 | Cn1ccnc1[C@]1(O)CC2CC[C@@H](C1)[C@H]2S(=O)(=O)c1cc(C(=O)Nc2cc(F)c(F)c(F)c2)ccc1Cl [Example 329] | < 100 nM |  | > 6250 nM | 
39 | O=C(Nc1cc(F)c(F)c(F)c1)c1ccc(Cl)c(S(=O)(=O)[C@H]2C3CCC2C[C@](O)(CO)C3)c1 [Example 60] | < 100 nM | > 25000 nM |  | 
40 | O=C(Nc1cc(F)c(F)c(F)c1)c1ccc(Cl)c(S(=O)(=O)[C@H]2CC3CCC(C2)[C@]3(O)Cc2nnn[nH]2)c1 [Example 276] | > 400 nM | > 25000 nM |  | 
41 | O=C1NC[C@]2(O1)C1CCC2C[C@H](S(=O)(=O)c2cc(C(=O)Nc3cc(F)c(F)c(F)c3)ccc2Cl)C1 [Example 274] | < 100 nM | > 25000 nM |  | 
42 | CC(c1ccncc1)S(=O)(=O)c1cc(C(=O)Nc2cc(F)c(F)c(F)c2)ccc1Cl (stereo not shown) [Example 80] | < 100 nM | 10000 to 25000 nM |  | 
43 | O=C(Nc1cc(F)c(F)c(F)c1)c1ccc(Cl)c(S(=O)(=O)[C@H]2CC3CCC(C2)[C@]3(O)CNS(=O)(=O)c2ccccn2)c1 [Example 296] | < 100 nM |  | > 6250 nM | 
44 | O=C(Nc1cc(F)c(F)c(F)c1)c1ccc(Cl)c(S(=O)(=O)[C@H]2C3CC[C@H]2C[C@](O)(c2ncc(-c4ccccc4)[nH]2)C3)c1 [Example 330] | < 100 nM | < 10000 nM |  | 
45 | O=C1NC[C@]2(CC3CC[C@@H](C2)[C@H]3S(=O)(=O)c2cc(C(=O)Nc3cc(F)c(F)c(F)c3)ccc2Cl)O1 [Example 285] | 100 to 400 nM | > 25000 nM |  | 
46 | O=C(Nc1cc(F)c(F)c(F)c1)c1ccc(Cl)c(S(=O)(=O)[C@H]2CC[C@@H](O)CC2)c1 [Example 4] | 100 to 400 nM | > 25000 nM |  | 
47 | CS(=O)(=O)OC[C@@H]1CC2CC[C@@H](C1)[C@H]2S(=O)(=O)c1cc(C(=O)Nc2cc(F)c(F)c(F)c2)ccc1Cl [Example 293] | < 100 nM |  | > 6250 nM | 
